Test results reported in ChEMBL document CHEMBL2385047, “Synthesis and antifungal evaluation of pentyloxyl-diphenylisoxazoloyl pneumocandins and echinocandins” (Bioorg Med Chem Lett, 2013).
Converted amounts (≈) assume the structure as drawn. Numbered stars: 1 amine (or outer) side, 2 acyl side, 3 side chain; on linkers, the order of the positions; unused ones are H or OH. Bridge positions count the residues as written; N and C are the ends. Square brackets hold non-standard residues; d marks the D form. Peptide text beside a SMILES is read from it. * marks the point of attachment. Orn(4R-OH,5R-OH) = O=C([C@H](C[C@@H](O)[C@@H](O)N[*:3])N[*:1])[*:2]; hTyr(3S-OH,4S-OH) = N[C@H](C(=O)O)[C@H](O)[C@@H](O)c1ccc(O)cc1; Pro(3S-OH,4S-Me) = C[C@H]1CN[C@H](C(=O)O)[C@H]1O; X1 = CCCCCOc1ccc(-c2cc(-c3ccc(C(=O)*)cc3)no2)cc1; Gln(3R-OH) = NC(=O)C[C@@H](O)[C@H](N)C(=O)O; Pro(3S-OH) = O=C(O)[C@H]1NCC[C@@H]1O; Hyp = O=C(O)[C@@H]1C[C@@H](O)CN1

What was measured:
Staphylococcus aureus = assay: Antibacterial activity against methicillin-sensitive Staphylococcus aureus MB2865 assessed as growth inhibition after 24 hrs by NCCLS broth microdilution method; type: functional; conditions: MB2865, 24 h, read-out: MIC100
Candida parapsilosis = assay: Antifungal activity against wild type Candida parapsilosis ATCC 22019 assessed as growth inhibition after 24 hrs by NCCLS broth microdilution method; type: functional; conditions: Lodderomyces parapsilosis, ATCC 22019, 24 h; for MIC: read-out: MIC100
Beta-1,3-glucan synthase [1] = target: T1, Beta-1,3-glucan synthase (Candida albicans, UniProt O13383); assay: Inhibition of wild type Candida albicans 1,3-beta-D-glucan synthase using UDP[6,3H]-glucose as substrate after 60 mins by liquid scintillation counting analysis
T1 sequence (O13383 whole entry): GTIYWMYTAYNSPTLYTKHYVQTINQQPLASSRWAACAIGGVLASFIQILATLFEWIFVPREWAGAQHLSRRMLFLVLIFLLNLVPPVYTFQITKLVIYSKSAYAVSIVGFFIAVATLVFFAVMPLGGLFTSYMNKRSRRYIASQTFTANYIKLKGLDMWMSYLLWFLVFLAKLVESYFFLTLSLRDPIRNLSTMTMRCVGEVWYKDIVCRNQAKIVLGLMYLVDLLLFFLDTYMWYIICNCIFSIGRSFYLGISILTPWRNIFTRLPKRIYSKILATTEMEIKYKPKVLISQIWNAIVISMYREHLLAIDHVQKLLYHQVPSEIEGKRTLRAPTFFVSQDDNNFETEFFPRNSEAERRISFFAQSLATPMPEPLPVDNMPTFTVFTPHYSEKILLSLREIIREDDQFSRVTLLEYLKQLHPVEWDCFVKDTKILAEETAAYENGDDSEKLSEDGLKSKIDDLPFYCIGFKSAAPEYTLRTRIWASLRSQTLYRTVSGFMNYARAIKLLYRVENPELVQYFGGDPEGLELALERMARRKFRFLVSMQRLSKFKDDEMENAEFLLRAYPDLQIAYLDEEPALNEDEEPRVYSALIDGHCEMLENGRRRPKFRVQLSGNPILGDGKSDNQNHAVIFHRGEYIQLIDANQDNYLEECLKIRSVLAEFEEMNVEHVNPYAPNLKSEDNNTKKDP

Escherichia coli = assay: Antibacterial activity against Escherichia coli ATCC 25922 assessed as growth inhibition after 24 hrs by NCCLS broth microdilution method; type: functional; conditions: ATCC 25922, 24 h, read-out: MIC100
Candida albicans [2] = assay: Antifungal activity against Candida albicans NR3 assessed as growth inhibition after 24 hrs by NCCLS broth microdilution method; type: functional; conditions: NR3, 24 h; for MIC: read-out: MIC100
Candida albicans [3] = assay: Antifungal activity against wild type Candida albicans MY1055 assessed as growth inhibition after 24 hrs by NCCLS broth microdilution method in presence of human serum; type: functional; conditions: MY1055, 24 h; for MIC: read-out: MIC100
Nakaseomyces glabratus = assay: Antifungal activity against wild type Candida glabrata MY1381 assessed as growth inhibition after 24 hrs by NCCLS broth microdilution method; type: functional; conditions: MY1381, 24 h; for MIC: read-out: MIC100
Pichia kudriavzevii = assay: Antifungal activity against wild type Candida krusei CLY549 assessed as growth inhibition after 24 hrs by NCCLS broth microdilution method; type: functional; conditions: CLY549, 24 h; for MIC: read-out: MIC100
Candida albicans [4] = assay: Antifungal activity against Candida albicans CAI4-R1 assessed as growth inhibition after 24 hrs by NCCLS broth microdilution method; type: functional; conditions: CAI4-R1, 24 h; for MIC: read-out: MIC100
Aspergillus fumigatus = assay: Antifungal activity against Aspergillus fumigatus MF5668 caspofungin spontaneous resistance mutant assessed as growth inhibition after 24 hrs by NCCLS broth microdilution method; type: functional; conditions: MF5668, 24 h; for minimal effective concentration: read-out: MEC
Candida albicans [5] = assay: Antifungal activity against wild type Candida albicans CAI4 assessed as growth inhibition after 24 hrs by NCCLS broth microdilution method; type: functional; conditions: CAI4, 24 h; for MIC: read-out: MIC100
Clavispora lusitaniae = assay: Antifungal activity against wild type Candida lusitaniae MY1396 assessed as growth inhibition after 24 hrs by NCCLS broth microdilution method; type: functional; conditions: MY1396, 24 h; for MIC: read-out: MIC100
Candida albicans [6] = assay: Antifungal activity against wild type Candida albicans MY1055 assessed as growth inhibition after 24 hrs by NCCLS broth microdilution method; type: functional; conditions: MY1055, 24 h; for MIC: read-out: MIC100
Cryptococcus neoformans = assay: Antifungal activity against capsular wild type Cryptococcus neoformans MY2061 assessed as growth inhibition after 24 hrs by NCCLS broth microdilution method; type: functional; conditions: MY2061, 24 h, read-out: MIC100
[7] = tested on: Meyerozyma guilliermondii; assay: Antifungal activity against wild type Candida guilliermondii CLY308 assessed as growth inhibition after 24 hrs by NCCLS broth microdilution method; type: functional; conditions: CLY308, 24 h; for MIC: read-out: MIC100
[8] = Inhibition of caspofungin-resistant Candida albicans CLY-16996 1,3-beta-D-glucan synthase component FKS1/FKS1 S645F mutant using UDP[6,3H]-glucose as substrate after 60 mins by liquid scintillation counting analysis
Beta-1,3-glucan synthase [9] = target: T1, Beta-1,3-glucan synthase; assay: Inhibition of wild type Candida albicans MY1055 1,3-beta-D-glucan synthase using UDP[6,3H]-glucose as substrate after 60 mins by liquid scintillation counting analysis
[10] = Inhibition of caspofungin-resistant Candida albicans CLY-16997 1,3-beta-D-glucan synthase component FKS1/FKS1 S645P mutant using UDP[6,3H]-glucose as substrate after 60 mins by liquid scintillation counting analysis
Candida albicans [11] = assay: Antifungal activity against caspofungin-resistant Candida albicans CLY-16996 harboring 1,3-beta-D-glucan synthase component FKS1/FKS1 S645F mutant assessed as growth inhibition after 24 hrs by NCCLS broth microdilution method; type: functional; conditions: CLY-16996, 24 h
Candida albicans [12] = assay: Antifungal activity against Candida albicans MY1055 infected in DBA/2 mouse assessed as reduction of log CFU in kidney administered 30 mins as ip tid post infection measured after 24 hrs; type: functional

Compound | MIC (Staphylococcus aureus) | MIC80 (Candida parapsilosis) | MIC (Candida parapsilosis) | MIC (Escherichia coli) | MIC80 (Candida albicans [2]) | MIC (Candida albicans [2]) | MIC80 (Candida albicans [3]) | MIC (Candida albicans [3]) | MIC80 (Nakaseomyces glabratus) | MIC (Nakaseomyces glabratus) | MIC80 (Pichia kudriavzevii) | MIC (Pichia kudriavzevii) | MIC80 (Candida albicans [4]) | MIC (Candida albicans [4]) | MIC80 (Aspergillus fumigatus) | minimal effective concentration (Aspergillus fumigatus) | MIC80 (Candida albicans [5]) | MIC (Candida albicans [5]) | MIC80 (Clavispora lusitaniae) | MIC (Clavispora lusitaniae) | other results
CCCCCOc1ccc(-c2cc(-c3ccc(C(=O)N[C@H]4C[C@@H](O)[C@@H](O)NC(=O)[C@@H]5[C@@H](O)[C@@H](C)CN5C(=O)[C@H]([C@@H](C)O)NC(=O)[C@H]([C@H](O)[C@@H](O)c5ccc(O)cc5)NC(=O)[C@@H]5C[C@@H](O)CN5C(=O)[C@H]([C@@H](C)O)NC4=O)cc3)no2)cc1 (X1-[Orn(4R-OH,5R-OH)]T[Hyp][hTyr(3S-OH,4S-OH)]T[Pro(3S-OH,4S-Me)]; lactam 1-C) | > 32 µg/mL | 4 µg/mL (≈ 3.54 µM) | 32 µg/mL (≈ 28.3 µM) | > 32 µg/mL | 4 µg/mL (≈ 3.54 µM) | 16 µg/mL (≈ 14.1 µM) | 0.5 µg/mL | 2 µg/mL | 0.25 µg/mL (≈ 0.221 µM) | 1 µg/mL (≈ 0.884 µM) | 0.5 µg/mL (≈ 0.442 µM) | 1 µg/mL (≈ 0.884 µM) | 1 µg/mL (≈ 0.884 µM) | 8 µg/mL (≈ 7.07 µM) | < 0.03 µg/mL | > 32 µg/mL | < 0.03 µg/mL | 0.5 µg/mL (≈ 0.442 µM) | 0.125 µg/mL (≈ 0.111 µM) | 1 µg/mL (≈ 0.884 µM) | IC50 (Beta-1,3-glucan synthase [1]): 4.4 nM; MIC80 (Candida albicans [6]): 0.06 µg/mL (≈ 0.053 µM); MIC (Candida albicans [6]): 0.5 µg/mL (≈ 0.442 µM); MIC (Cryptococcus neoformans): > 32 µg/mL; MIC80 [7]: 2 µg/mL (≈ 1.77 µM); MIC [7]: 4 µg/mL (≈ 3.54 µM)
CCCCCOc1ccc(-c2cc(-c3ccc(C(=O)N[C@H]4C[C@@H](O)[C@@H](O)NC(=O)[C@@H]5[C@@H](O)CCN5C(=O)[C@H]([C@H](O)CC(N)=O)NC(=O)[C@H]([C@H](O)[C@@H](O)c5ccc(O)cc5)NC(=O)[C@@H]5C[C@@H](O)CN5C(=O)[C@H]([C@@H](C)O)NC4=O)cc3)no2)cc1 (X1-[Orn(4R-OH,5R-OH)]T[Hyp][hTyr(3S-OH,4S-OH)][Gln(3R-OH)][Pro(3S-OH)]; lactam 1-C) | > 32 µg/mL | 2 µg/mL (≈ 1.72 µM) | 32 µg/mL (≈ 27.6 µM) | > 32 µg/mL | 4 µg/mL (≈ 3.45 µM) | 8 µg/mL (≈ 6.9 µM) | 0.25 µg/mL | 1 µg/mL | 0.25 µg/mL (≈ 0.215 µM) | 0.5 µg/mL (≈ 0.431 µM) | 0.25 µg/mL (≈ 0.215 µM) | 2 µg/mL (≈ 1.72 µM) | 1 µg/mL (≈ 0.862 µM) | 4 µg/mL (≈ 3.45 µM) | < 0.03 µg/mL | > 32 µg/mL | < 0.03 µg/mL | 0.06 µg/mL (≈ 0.0517 µM) | < 0.03 µg/mL | 0.125 µg/mL (≈ 0.108 µM) | IC50 [8]: 2.1 nM; IC50 (Beta-1,3-glucan synthase [9]): 2.8 nM; IC50 [10]: 2.4 nM; MIC (Candida albicans [11]): 2 µg/mL (≈ 1.72 µM); ED90 (Candida albicans [12]): 0.24 mg/kg/day; ED99 (Candida albicans [12]): 1.31 mg/kg/day; MIC80 (Candida albicans [6]): < 0.03 µg/mL; MIC (Candida albicans [6]): 0.125 µg/mL (≈ 0.108 µM); MIC (Cryptococcus neoformans): > 32 µg/mL; MIC80 [7]: 1 µg/mL (≈ 0.862 µM); MIC [7]: 2 µg/mL (≈ 1.72 µM)
